From patent US7521441B2, “Cyclopropyl fused indolobenzazepine HCV NS5B inhibitors” (Bristol-Myers Squibb Company, priority 2006, dated 2009)
Like-named read-outs stand apart in the source and are kept apart here.

Key:
[1] = target: T1, HCV NS5B RdRp genotype 1b (Hepatitis C virus genotype 1b, UniProt Q9WMX2); experiment: Modified HCV NS5B RdRp enzyme assay (preincubation protocol); format: biochemical; settings: HCV NS5B genotype 1b
T1 construct: The protein was expressed with an 18 amino acid C-terminal truncation to enhance the solubility; made in house; host or cells: E. coli BL21(DE3), pET21a vector
T1 sequence (Q9WMX2 2420-2992): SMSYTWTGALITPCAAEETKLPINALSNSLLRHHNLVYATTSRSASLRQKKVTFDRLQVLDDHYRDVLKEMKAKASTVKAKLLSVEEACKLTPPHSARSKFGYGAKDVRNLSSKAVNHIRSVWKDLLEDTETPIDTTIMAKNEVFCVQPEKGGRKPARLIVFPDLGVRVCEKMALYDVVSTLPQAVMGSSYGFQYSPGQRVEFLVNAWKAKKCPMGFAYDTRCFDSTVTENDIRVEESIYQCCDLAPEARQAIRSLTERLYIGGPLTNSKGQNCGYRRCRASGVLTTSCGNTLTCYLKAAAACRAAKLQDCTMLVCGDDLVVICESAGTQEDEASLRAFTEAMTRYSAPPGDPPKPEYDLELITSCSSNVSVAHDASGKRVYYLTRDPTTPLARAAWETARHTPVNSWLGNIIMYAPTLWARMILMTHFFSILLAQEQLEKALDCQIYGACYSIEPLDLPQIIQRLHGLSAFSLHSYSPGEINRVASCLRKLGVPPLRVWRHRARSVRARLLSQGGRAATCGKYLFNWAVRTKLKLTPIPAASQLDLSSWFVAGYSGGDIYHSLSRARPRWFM
Procedure: HCVNS5B RdRp cloning, expression, and purification. The cDNA encoding the NS5B protein of HCV, genotype 1b, was cloned into the pET21a expression vector. The protein was expressed with an 18 amino acid C-terminal truncation to enhance the solubility. The E. coli competent cell line BL21(DE3) was used for expression of the protein. Cultures were grown at 37° C. for ˜4 hours until the cultures reached an optical density of 2.0 at 600 nm. The cultures were cooled to 20° C. and induced with 1 mM IPTG. Fresh ampicillin was added to a final concentration of 50 μg/ml and the cells were grown overnight at 20° C.
Cell pellets (3L) were lysed for purification to yield 15-24 mgs of purified NS5B. The lysis buffer consisted of 20 mM Tris-HCl, pH 7.4, 500 mM NaCl, 0.5% triton X-100, 1 mM DTT, 1 mM EDTA, 20% glycerol, 0.5 mg/ml lysozyme, 10 mM MgCl2, 15 ug/ml deoxyribonuclease I, and Complete TM protease inhibitor tablets (Roche). After addition of the lysis buffer, frozen cell pellets were resuspended using a tissue homogenizer. To reduce the viscosity of the sample, aliquots of the lysate were sonicated on ice using a microtip attached to a Branson sonicator. The sonicated lysate was centrifuged at 100,000×g for 1 hr at 4° C. and filtered through a 0.2 μm filter unit (Corning).
The protein was purified using three sequential chromatography steps: Heparin sepharose CL-6B, polyU sepharose 4B, and Hitrap SP sepharose (Pharmacia). The chromatography buffers were identical to the lysis buffer but contained no lysozyme, deoxyribonuclease I, MgCl2 or protease inhibitor and the NaCl concentration of the buffer was adjusted according to the requirements for charging the protein onto the column. Each column was eluted with a NaCl gradient which varied in length from 5-50 column volumes depending on the column type. After the final chromatography step, the resulting purity of the enzyme is >90% based on SDS-PAGE analysis. The enzyme was aliquoted and stored at −80° C.
Standard HCVNS5B RdRp enzyme assay. HCV RdRp genotype 1b assays were run in a final volume of 60 μl in 96 well plates (Costar 3912). The assay buffer is composed of 20 mM Hepes, pH 7.5, 2.5 mM KCl, 2.5 mM MgCl2, 1 mM DTT, 1.6 U RNAse inhibitor (Promega N2515), 0.1 mg/ml BSA (Promega R3961), and 2% glycerol. All compounds were serially diluted (3-fold) in DMSO and diluted further in water such that the final concentration of DMSO in the assay was 2%. HCV RdRp genotype 1b enzyme was used at a final concentration of 28 nM. A polyA template was used at 6 nM, and a biotinylated oligo-dT12 primer was used at 180 nM final concentration. Template was obtained commercially (Amersham 27-4110). Biotinylated primer was prepared by Sigma Genosys. 3H-UTP was used at 0.6 μCi (0.29 μM total UTP). Reactions were initiated by the addition of enzyme, incubated at 30° C. for 60 min, and stopped by adding 25 μl of 50 mM EDTA containing SPA beads (4 μg/μl, Amersham RPNQ 0007). Plates were read on a Packard Top Count NXT after >1 hr incubation at room temperature.
Modified HCVNS5B RdRp enzyme assay. A modified enzyme assay was performed essentially as described for the standard enzyme assay except for the following: The biotinylated oligo dT12 primer was precaptured on streptavidin-coated SPA beads by mixing primer and beads in assay buffer and incubating at room temperature for one hour. Unbound primer was removed after centrifugation. The primer-bound beads were resuspended in 20 mM Hepes buffer, pH 7.5 and used in the assay at final concentrations of 20 nM primer and 0.67 μg/μl beads. Order of addition in the assay: enzyme (14 nM) was added to diluted compound followed by the addition of a mixture of template (0.2 nM), 3H-UTP (0.6 μCi, 0.29 μM), and primer-bound beads, to initiate the reaction; concentrations given are final. Reactions were allowed to proceed for 4 hours at 30° C.
IC50 values for compounds were determined using seven different [I]. […]

HCV replicon cells = experiment: HCV replicon FRET assay; format: cell-based
Description: FRET Assay Preparation. To perform the HCV FRET screening assay, 96-well cell culture plates were used. The FRET peptide (Anaspec, Inc.) (Taliani et al., Anal. Biochem. 1996, 240, 60-67) contains a fluorescence donor, EDANS, near one end of the peptide and an acceptor, DABCYL, near the other end. The fluorescence of the peptide is quenched by […] resonance energy transfer (RET) between the donor and the acceptor, but as the NS3 protease cleaves the peptide the products are released from RET quenching and the fluorescence of the donor becomes apparent. The assay reagent was made as follows: 5× cell Luciferase cell culture lysis reagent from Promega (#E153A) diluted to 1× with dH2O, NaCl added to 150 mM final, the FRET peptide diluted to 20 uM final from a 2 mM stock.
To prepare plates, HCV replicon cells, with or without a Renilla luciferase reporter gene, were trypsinized and placed into each well of a 96-well plate with titrated test compounds added in columns 3 through 12; columns 1 and 2 contained a control compound (HCV protease inhibitor), and the bottom row contained cells without compound. The plates were then placed in a CO2 incubator at 37° C.
Assays. Subsequent to addition of the test compounds described above (FRET Assay Preparation), at various times the plate was removed and Alamar blue solution (Trek Diagnostics, #00-100) was added per well as a measure of cellular toxicity. After reading in a Cytoflour 4000 instrument (PE Biosystems), plates were rinsed with PBS and then used for FRET assay by the addition of 30 ul of the FRET peptide assay reagent described above (FRET Assay Preparation) per well. The plate was then placed into the Cytoflour 4000 instrument which had been set to 340 excite/490 emission, automatic mode for 20 cycles and the plate read in a kinetic mode. Typically, the signal to noise using an endpoint analysis after the reads was at least three-fold. Alternatively, after Alamar blue reading, plates were rinsed with PBS, 50 ul of DMEM (high glucose) without phenol red was added and plates were then used for luciferase assay using the Promega Dual-Glo Luciferase Assay System.
Compound analysis was determined by quantification of the relative HCV replicon inhibition and the relative cytotoxicity values. To calculate cytoxicity values, the average Alamar Blue fluorescence signals from the control wells were set as 100% non-toxic. The individual signals in each of the compound test wells were then divided by the average control signal and multiplied by 100% to determine […]. To calculate the HCV replicon inhibition values, an average background value was obtained from the two wells containing the highest amount of HCV protease inhibitor at the end of the assay period. These numbers were similar to those obtained from naïve Huh-7 cells.
The background numbers were then subtracted from the average signal obtained from the control wells and this number was used as 100% activity. The individual signals in each of the compound test wells were then divided by the averaged control values after background subtraction and multiplied by 100% to determine percent activity. EC50 values for a protease inhibitor titration were calculated as the concentration which caused a 50% reduction in FRET or luciferase activity. The two numbers generated for the compound plate, percent cytoxicity and percent activity were used to determine compounds of interest for further analysis.

[2] = Hepatitis C virus, FRET assay, HCV replicon cells, read-out: EC50

## COc1ccc2c(c1)C1CC1(C(=O)N1C[C@@H](C)N(C(C)C)[C@@H](C)C1)Cn1c-2c(C2CCCCC2)c2ccc(C(=O)NS(=O)(=O)N(C)C)cc21 (stereo partly shown)
[1]
  IC50: 1 to 500 nM
HCV replicon cells; [2]
  EC50: 1 to 500 nM

## COc1ccc2c(c1)C1CC1(C(=O)N1C[C@@H](C)N(C(C)=O)[C@@H](C)C1)Cn1c-2c(C2CCCCC2)c2ccc(C(=O)NS(=O)(=O)N(C)C)cc21 (stereo partly shown)
[1]
  IC50: 1 to 500 nM
HCV replicon cells; Hepatitis C virus
  EC50: 1 to 500 nM

## COc1ccc2c(c1)C1CC1(C(=O)N1C[C@@H](C)N(C)[C@@H](C)C1)Cn1c-2c(C2CCCCC2)c2ccc(C(=O)NS(=O)(=O)C3CC3)cc21 (stereo partly shown)
[1]
  IC50: 1 to 500 nM
HCV replicon cells; [2]
  EC50: 1 to 500 nM

## COc1ccc2c(c1)C1CC1(C(=O)N1C[C@@H](C)N(C)[C@@H](C)C1)Cn1c-2c(C2CCCCC2)c2ccc(C(=O)NS(C)(=O)=O)cc21 (stereo partly shown) [drawing 34]
[1]
  IC50: 1 to 500 nM
HCV replicon cells; FRET assay, HCV replicon cells, read-out: EC50
  EC50: 1 to 500 nM

## COc1ccc2c(c1)C1CC1(C(=O)N1C[C@@H](C)N(C)[C@@H](C)C1)Cn1c-2c(C2CCCCC2)c2ccc(C(=O)NS(=O)(=O)N(C)C)cc21 (stereo partly shown)
[1]
  IC50: 1 to 500 nM
HCV replicon cells; Hepatitis C virus
  EC50: 1 to 500 nM

## COc1ccc2c(c1)C1CC1(C(=O)N1C[C@@H](C)N(C)[C@@H](C)C1)Cn1c-2c(C2CCCCC2)c2ccc(C(=O)NS(=O)(=O)C(C)C)cc21 (stereo partly shown)
[1]
  IC50: 1 to 500 nM
HCV replicon cells; [2]
  EC50: 1 to 500 nM

## COc1ccc2c(c1)C1CC1(C(=O)N1C[C@@H](C)N(C)[C@@H](C)C1)Cn1c-2c(C2CCCCC2)c2ccc(C(=O)NS(=O)(=O)N3CCC3)cc21 (stereo partly shown)
[1]
  IC50: 1 to 500 nM
HCV replicon cells; [2]
  EC50: 1 to 500 nM

## COc1ccc2c(c1)[C@@H]1C[C@]1(C(=O)N1C[C@@H](C)N(C)[C@@H](C)C1)Cn1c-2c(C2CCCCC2)c2ccc(C(=O)NS(=O)(=O)N(C)C)cc21
[1]
  IC50: 1 to 500 nM
HCV replicon cells; Hepatitis C virus
  EC50: 1 to 500 nM

## COc1cccc2c1C1CC1(C(=O)N1C[C@@H](C)N(C)[C@@H](C)C1)Cn1c-2c(C2CCCCC2)c2ccc(C(=O)NS(=O)(=O)N(C)C)cc21 (stereo partly shown)
[1]
  IC50: 1 to 500 nM
HCV replicon cells; [2]
  EC50: 1 to 500 nM

## C[C@@H]1CN(C(=O)C23CC2c2cc(OCc4ccccc4)ccc2-c2c(C4CCCCC4)c4ccc(C(=O)NS(=O)(=O)N(C)C)cc4n2C3)C[C@H](C)N1C (stereo partly shown)
[1]
  IC50: 1 to 500 nM
HCV replicon cells; [2]
  EC50: 1 to 500 nM

## C[C@@H]1CN(C(=O)C23CC2c2cc(O)ccc2-c2c(C4CCCCC4)c4ccc(C(=O)NS(=O)(=O)N(C)C)cc4n2C3)C[C@H](C)N1C (stereo partly shown)
[1]
  IC50: 1 to 500 nM
HCV replicon cells; [2]
  EC50: 1 to 500 nM

## COc1ccc2c(c1)C1CC1(C(=O)N1[C@H](C)CN(Cc3ccccc3)C[C@@H]1C)Cn1c-2c(C2CCCCC2)c2ccc(C(=O)NS(=O)(=O)N(C)C)cc21 (stereo partly shown)
[1]
  IC50: 1000 to 10000 nM
HCV replicon cells; [2]
  EC50: 500 to 1000 nM

## COc1ccc2c(c1)[C@H]1C[C@@]1(C(=O)N1C[C@@H](C)N(C)[C@@H](C)C1)Cn1c-2c(C2CCCCC2)c2ccc(C(=O)NS(=O)(=O)N(C)C)cc21
[1]
  IC50: 1 to 500 nM
HCV replicon cells; Hepatitis C virus
  EC50: 1 to 500 nM

## COc1ccc2c(c1)C1CC1(C(=O)N1C[C@@H](C)N(C)[C@@H](C)C1)Cn1c-2c(C2CCCCC2)c2ccc(C(=O)NS(C)(=O)=O)cc21 (stereo partly shown) [drawing 31]
[1]
  IC50: 1 to 500 nM
HCV replicon cells; [2]
  EC50: 1 to 500 nM
